PMC11172314, “Towards Enhanced Tunability of Aqueous Biphasic Systems: Furthering the Grasp of Fluorinated Ionic Liquids in the Purification of Proteins” (International Journal of Molecular Sciences, 2024)

Assays:
Parameters in all cases: species or system chicken
FITC-Lys (lysozyme) = target: T1, FITC-Lys (lysozyme) (Gallus gallus, UniProt P00698); experiment: Microscale thermophoresis (MST) binding of ABS phase-forming components to FITC-labeled lysozyme; settings: FITC-Lys 0.41 μM, 25 °C; max. conc. (first capillary) in monomer range: below 1st CAC for FILs, ]0, 100] mM for non-aggregating ligands
T1 construct: Lyophilized lysozyme from chicken egg white, ≥90% purity; purchased Millipore (Darmstadt, Germany); host or cells: chicken egg white (natural source)
T1 sequence (P00698 19-147): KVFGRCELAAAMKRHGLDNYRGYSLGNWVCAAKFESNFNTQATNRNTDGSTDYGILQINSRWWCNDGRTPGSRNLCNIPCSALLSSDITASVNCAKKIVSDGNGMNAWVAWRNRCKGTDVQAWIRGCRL
Description: Usually, in the labeling process, the position of dye is statistically distributed, and one amine per protein is labeled. […] The four ABS phase-forming components, [ N1112(OH) ][H2PO4] […] (FILs), and [C4C1Im][CF3SO3] […] In each run of MST, a maximum concentration of ligand was selected and consecutively diluted in sixteen capillaries.
Binding studies were conducted through microscale thermophoresis measurements of dye-labeled lysozyme. […] MST tests were conducted in a monolith NT.115 (blue/red) in accordance with the Nano Temper Technologies methodology. Medium MST power and 20% LED power (nano-blue) were set as the instrument’s default settings. For each and every MST measurement, PBS buffer was used. […] For each ligand, a series of 16 1:1 dilutions was prepared using the same buffer, varying the starting ligand concentration from 15 to 400 mM. MST traces were recorded using the standard parameters: 5 s MST power off, 30 s MST power on, and 5 s MST power off. Three independently conducted pipetted experiments’ data were examined using NanoTemper Technologies’ MO. Affinity Analysis program, version 2.3.

lysozyme (Lys) [1] = target: T2, lysozyme (Lys) (Gallus gallus, UniProt P00698); experiment: DSC thermal stability (Tm, ΔH) of lysozyme in water, component solutions and ABS phases; settings: 1.0 mg/mL Lys
T2 construct: Lyophilized lysozyme from chicken egg white, ≥90% purity; purchased Millipore (Darmstadt, Germany); host or cells: chicken egg white (natural source)
T2 sequence (P00698 19-147): as above
Text: Differential scanning calorimetry (DSC) measurements (Section 3) were used to determine the melting temperature ( Tm ) and enthalpy ( Δ H) of lysozyme, at which both the folded and unfolded states coexist at equilibrium. DSC outputs, thermal transitions at the nanoscale level, allow to analyze alterations on proteins structure and stability, providing sharp perceptions of the factors affecting stability, as well as of the folding and unfolding processes. […] (DSC curve depicted in Figure S16 of Supplementary Materials).
FIL (BP#8, BP#10, BP#11, and BP#12). […] For the system based on [C4C1Im][CF3SO3]
The thermal stability of lysozyme was analyzed in water, ABS phase-forming compounds aqueous solutions, and partition ABS phases. […] Partition lysozyme on each phase from the prepared biphasic points as well as recovered protein from the FIL-rich phase were also addressed for a selection of studied systems listed in Table 1. We acquired thermograms using a TA^TM Nano DSC from TA Instruments. All scans were conducted in a 300 μ L capillary cell through a temperature ramp from 20 to 90 °C at a heating rate of 1 °C/min and 3 atm pressure. All samples were degassed for 7 min at 20 °C, with the exception of FIL-containing samples owing to their surfactant properties. After subtracting the polynomial fit baselines, raw thermogram curve data were fitted with the TwoStateScaled model using NanoAnalyze TA Instruments software, version 3.12, to determine the protein thermal transition temperatures in each sample. During nanoDSC scans, Δ H and Δ S were obtained and utilized to determine Δ G ( Δ G = Δ H − T Δ S).

lysozyme (Lys) [2] = target: T2, lysozyme (Lys); experiment: Intrinsic (tryptophan) fluorescence of lysozyme; settings: 0.2 mg/mL Lys, excitation 295 nm, component 0.1–800 mM, 25 °C
Text: (FIL), [C4C1Im][CF3SO3] (mere fluoro-containing IL), and [ N1112(OH) ][H2PO4] (globular protein stabilizer). […] Even though large changes in protein conformation can modify the intensity of tyrosine and phenylalanine fluorescence signals, their low extinction coefficients and quantum yields, as well as their relative lower sensitivity to environmental changes, make them a less appealing candidate. Tryptophan is frequently found concealed in the hydrophobic core of proteins due to its aromatic nature. […] The tryptophan release energy is particularly sensitive to the polarity (and dynamics) of the environment because the excited-state dipole moment is quite large. Reactions to denaturation, substrate binding, subunit association, and conformational transitions create variations in the tryptophan emission spectra. The spectrum shift generally known as blue shift, a shift of the maximum emission towards smaller wavelengths, denotes that the aromatic residue is buried in the native structure of the protein [67]. […] Furthermore, the amount of exposure of the fluorophores to the solvent is associated with the increase or decrease in the intensity of the emission spectrum. […] [C4C1Im][CF3SO3] and [ N1112(OH) ][H2PO4] […] Variations in lysozyme spectra are caused by ligand-induced changes in the microenvironment of tryptophan residues, either by shifting the maximum peak wavelength (blue or red shift) or by altering peak intensities. These changes can be used as a measure of the effect of the ABS phase-forming components on protein folding and unfolding.
Intrinsic fluorescence spectroscopy measurements of lysozyme’s tryptophan residues were carried out on a Spex Horiba Jobyin Yvon spectrofluorometer (HORIBA Jobin Yvon, France) using a 10 mm path length quartz cuvette. […] The excitation and emission slit widths of 2 nm were used for all the measurements. Maximum fluorescence values were attained as the average of three measurements.

lysozyme (Lys) [3] = target: T2, lysozyme (Lys); experiment: Turbidimetry (transmittance) of lysozyme solutions; settings: 0.2 mg/mL Lys, IL 0.1–120 mM, 25 °C
Text: Monitoring the changes in turbidity offers an insight into the protein–ionic liquid aqueous solution interactions, which allows for the assessment of the ionic liquid functionalization of the fluorinated IL vs. the mere fluoro-contaning IL ([C2C1Im][C4F9SO3] vs. [C4C1Im][CF3SO3]). […] In opposition, [C2C1Im][C4F9SO3] […] The results of Rather et al. also confirmed the significant composition and concentration dependence of the lysozyme–surfactant IL interactions, mainly in the CAC concentration regime. Additionally, an increase in turbidity is observed for both [C4C1Im][CF3SO3] and [C2C1Im][C4F9SO3] at concentrations below the first CAC of the FIL (only monomers exist in solution for both ionic liquids) in comparison with lysozyme in water (snapshots in Figure 7A,B). […]
Both turbidimetry and UV-Vis absorbance assays were carried out at 25 °C on a double-beam UV6300PL UV-Vis spectrophotometer (VWR, Leuven, Belgium) with a pair of 10 mm path length quartz cuvettes of 400 µL sample volume. […] For absorbance measurements, all spectra were acquired with 190 to 400 nm wavelength range. […] Aqueous solutions of [C4C1Im][CF3SO3] and [C2C1Im][C4F9SO3] were analyzed with concentrations varying from 0.1 to 120 mM.

Kd (FITC-Lys (lysozyme)): no binding detected
Lys Tm (lysozyme (Lys) [1]; 0.1 mM component in water): 74.50 °C
Lys ∆H (lysozyme (Lys) [1]; 0.1 mM component in water): 105.5 kcal/mol
Lys Tm (lysozyme (Lys) [1]; 1 mM component in water): 75.54 °C
Lys ∆H (lysozyme (Lys) [1]; 1 mM component in water): 104.7 kcal/mol
Lys Tm (lysozyme (Lys) [1]; 5 mM component in water): 74.64 °C
Lys ∆H (lysozyme (Lys) [1]; 5 mM component in water): 96.7 kcal/mol
Lys Tm (lysozyme (Lys) [1]; 10 mM component in water): 74.16 °C
Lys ∆H (lysozyme (Lys) [1]; 10 mM component in water): 94.55 kcal/mol
Lys maximum emission wavelength with increasing component concentration (lysozyme (Lys) [2]): red shift from 334 nm to 368 nm
Turbidity (transmittance) of Lys solution with increasing IL concentration (lysozyme (Lys) [3]): steady turbidity profile
SMILES: CCCCn1cc[n+](C)c1.O=S(=O)([O-])C(F)(F)F [[C4C1Im][CF3SO3]]
Lys fluorescence emission intensity with increasing component concentration (lysozyme (Lys) [2]): increase in Lys fluorescence emission intensity
